Where a name gives a salt, the structure may show the parent alone.
What was measured:
P. aeruginosa = settings: literature reports (Musk et al.; Kim et al.); cited from earlier work
[1] = test system: Streptococcus pyogenes, Streptococcus mitis, Staphylococcus epidermidis, and E. coli; settings: 10 wt % of hexylene glycol, in vitro; cited from earlier work
[2] = rats; cited from earlier work
Candida albicans = experiment: MIC of LAE/SL mixtures (FIG. 7, FIG. 8A); format: cell-based; settings: Example 8, FIG. 8A; solubilized in DW
Method: MIC values of various mixtures of N^α-lauroyl arginine ethyl ester HCl salt and sucrose monolaurate in preventing the growth of Candida alibicans were determined. […] In comparing ratios of wt % of SL to wt % of LAE, ratios from 2:1 to 1:2 show enhancement compared to 100 wt % LAE.

S. aureus = settings: Example 8, FIG. 8A; solubilized in DW
Method: In Example 8, different pathogens were tested for MIC (Minimum Inhibitory Concentration) with formulations that comprise combinations of LAE and SL. […] In FIGS. 8A and 8B the active ingredients LAE and SL were solubilized in DW as indicated and were tested. FIG. 8A reports MIC combination of LAE and SL tested on Candida albicans fungi in duplicate and for gram positive S. aureus. FIG. 8B reports MIC on combinations of LAE/SL exposed to S. epidermidis.

S. epidermidis = experiment: MIC of LAE/SL mixtures (FIG. 8B); format: cell-based; settings: Example 8, FIG. 8B; solubilized in DW
Method: In Example 8, different pathogens were tested for MIC (Minimum Inhibitory Concentration) with formulations that comprise combinations of LAE and SL. […] In FIGS. 8A and 8B the active ingredients LAE and SL were solubilized in DW as indicated and were tested. […] FIG. 8B reports MIC on combinations of LAE/SL exposed to S. epidermidis.

Molecule: CCCCCCCCCCCC(=O)N[C@@H](CCCNC(=N)N)C(=O)OCC [LAE, N^α-lauroyl-L-arginine-ethyl ester]
- biofilm formation, result in words (P. aeruginosa): inhibited biofilm formation

Molecule: CC(O)CC(C)(C)O (stereo not shown) [hexylene glycol]
- killing power, comparison [1]: equivalent to 30 wt % of 1,3 butylene glycol or propylene glycol

Molecule: CCOC(=O)CC(O)(CC(=O)OCC)C(=O)OCC [triethyl citrate]
- oral LD50 [2]: 7.0 cc/kg

Molecule: Ferric ammonium citrate [reference compound]
- biofilm formation, result in words (P. aeruginosa): inhibited biofilm formation in a dose-dependent manner

Molecule: sucrose laurate [SL]
- MIC, result in words (Candida albicans): much higher MIC values than LAE or combinations of LAE/SL
- MIC, result in words (S. aureus): much higher MIC values than LAE or combinations of LAE/SL
- MIC, result in words (S. epidermidis): much higher MIC values than LAE or combinations of LAE/SL

Reference: patent publication US12035718B2, “Biofilm penetrating compositions and methods” (Nevada Naturals Inc., priority 2017, dated 2024)
